{"source": "patent US20080207750A1", "about": "“Use of N-Chlorotaurine for Treatment of Oozing Tissue Deficiencies” (Pathogenics LLC, priority 2002, published 2008)", "key": {"oozing ear channel": {"system": "oozing ear channel", "assay": "Treatment of the oozing ear channel after tympanoplasty with aqueous 1% NCT solution (case reports)", "type": "in vivo, human", "settings": "for time until oozing ceased / complete epithelization achieved earlier than by the conventional treatment with fuchsine / incorporation of the temporal fascia: tympanoplasty", "from_the_text": "Rinsing the ear channel with NCT solution provokes in general a drying of the ear channel and the tympanoplastic within 1-2 days.\nA human patient with a traumatic perforation of the tympanic membrane was provided with a tympanoplasty. After removing incrustations and granulation tissue, the destroyed tympanic membrane was excised and substituted by a fascia temporalis. After taking away the tamponade, the microbiological culture of a swab from the reconstructed tympanic membrane and the ear channel was sterile. Subsequently, the oozing ear channel was treated one time daily for two days by instillation of 2 mL of aqueous 1% NCT solution. […] The complete epithelization was achieved 3 days earlier than by the conventional treatment with fuchsine.\nA human patient suffering from a perforation of the tympanic membrane caused by a chronic inflammation of the middle ear received tympanoplasty. After removing incrustations and granulation tissue, the destroyed tympanic membrane was excised and substituted by a fascia temporalis. After taking away the tamponade, the microbiological culture of a swab from the reconstructed tympanic membrane and the ear channel was sterile. Subsequently, the oozing and swollen ear channel was treated one time daily for five days by instillation of 2 mL of aqueous 1% NCT solution. […] The complete epithelization was achieved 3 days earlier than by the conventional treatment with fuchsine."}, "[1]": {"assay": "Storage stability of aqueous NCT solutions", "type": "physicochemical", "settings": "1% (55 mM) aqueous solution stored at 2-4° C.", "protocol": "(§1) Reagents: Pure NCT as a crystalline sodium salt was dissolved in sterile distilled water to a concentration of 1% (55 mM). Purity was verified by iodometric titration and spectrophotometry. […] Solutions were stored at 2-4° C., where they are stable for 1 year, and allowed to reach room temperature before application to the patients."}, "[2]": {"system": "open leg ulcer with fibrous coating", "assay": "Treatment of open leg ulcer with fibrous coating with wound dressing soaked with aqueous 1% NCT solution", "type": "in vivo, human", "settings": "Example 3: person, burn accident; dressing soaked with aqueous 1% NCT two times daily", "protocol": "A human patient suffering from an open leg ulcer with fibrous coating caused by a burn accident was treated two times daily with wound dressing soaked with aqueous 1% NCT solution. […] Microbiological cultures of swabs before and after therapy were sterile."}, "[3]": {"assay": "pH of aqueous solutions of NCT", "type": "physicochemical", "protocol": "as §1"}, "outer ear canal": {"system": "outer ear canal", "assay": "Pilot study (open phase IIa): irrigation of the external auditory canal with 1% NCT after tympanoplasty", "type": "in vivo, human", "settings": "12 patients", "protocol": "Procedures: Local irrigations of the external auditory canal with 3 ml of 1% N-chlorotaurine solution were performed once daily until the canal was dry.\nas §1\nStudy Design: An open phase IIa study was performed in 12 patients after tympanoplasty. They received a single-shot antibiotic therapy with 2 g Spizef (cefotiam) i.v. perioperatively.\nAll subjects were treated with 1% N-chlorotaurine.\nSubjects: The study population included 6 female and 6 male human patients, ranging in age from 32 to 66 years (median 48,1 years). Inclusion criteria was status post tympanoplasty. Exclusion criteria included topical treatment with other agents, systemic application of antibiotics or corticoids, pregnancy, and simultaneous participation in another study. No patients had to be withdrawn after inclusion.\nTreatment and Time Course: After removing the ear-tamponade, which remained in place for 2 to 3 weeks postoperatively, 3 ml of the 1% aqueous NCT solution was applied once daily to the outer ear canal. The endpoint of the treatment was defined as a completely dry canal, corresponding to a clinical score of zero (see below for scoring).\nEvaluation and Statistical Analysis: The primary criterion for the judgement of the status of the external meatus was a six-scale clinical score (0-5) based on visual observation via ear microscopy (zero=dry outer ear canal; 5=moist outer ear canal with inflammation).\nThe second criterion was subjective pain, ascertained by a visual analogue scale.\nClinical examination of the outer ear canal was performed daily for detection of moisture, signs of infection, and judgement of epithelisation of the neo-tympanon.\nA completely dry external meatus (score zero) was considered as the endpoint criterion for the termination of the study.\nBefore and at the end of the study an audiogram was performed in all patients.\nMoisture and inflammation of the external auditory canal during and after irrigation with NCT were compared to those before treatment using the Wilcoxon test. P-values<0.05 were considered to indicate statistical significance. Due to the limited number of patients no corrections for multiple comparisons were applied."}, "[4]": {"settings": "Example 1: person, 2 mL aqueous 1% NCT one time daily for two days"}, "[5]": {"settings": "Example 2: person, 2 mL aqueous 1% NCT one time daily for five days"}, "[6]": {"settings": "3 ml 1% NCT once daily, score zero = dry outer ear canal"}}}
{"smiles": "O=S(=O)(O)CCNCl", "note": "[NCT, N-chlorotaurine]", "values": [{"measurement": "time until oozing ceased", "setting": "oozing ear channel; Example 1: person, 2 mL aqueous 1% NCT instilled one time daily for two days", "result": "one"}, {"measurement": "complete epithelization achieved earlier than by the conventional treatment with fuchsine", "setting": "oozing ear channel; [4]", "result": 3, "unit": "days"}, {"measurement": "incorporation of the temporal fascia", "setting": "oozing ear channel; [4]", "result": "proceeded without problems"}, {"measurement": "time until oozing ceased", "setting": "oozing ear channel; Example 2: person, 2 mL aqueous 1% NCT instilled one time daily for five days", "result": "three"}, {"measurement": "complete epithelization achieved earlier than by the conventional treatment with fuchsine", "setting": "oozing ear channel; [5]", "result": 3, "unit": "days"}, {"measurement": "incorporation of the temporal fascia", "setting": "oozing ear channel; [5]", "result": "proceeded without problems"}, {"measurement": "drying of the ear channel and the tympanoplastic", "setting": "oozing ear channel; rinsing the ear channel with NCT solution, in general", "result": "1 to 2", "unit": "days"}, {"measurement": "stability of solutions on storage", "setting": "[1]", "result": 1, "unit": "year"}, {"measurement": "healing process", "setting": "[2]", "result": "went on without problems"}, {"measurement": "treatment time until the fibrous coating disappeared", "setting": "[2]", "result": "three"}, {"measurement": "pH", "setting": "[3]", "result": 8}, {"measurement": "dizziness or nystagmus", "setting": "outer ear canal; 3 ml 1% NCT once daily", "result": "No dizziness or nystagmus occurred"}, {"measurement": "drying of the outer ear canal", "setting": "outer ear canal; 3 ml 1% NCT once daily", "result": "Rapid drying of the outer ear canal was detected in all patients"}, {"measurement": "epithelisation of the new tympanon on ear microscopy", "setting": "outer ear canal; 3 ml 1% NCT once daily", "result": "proceeded regularly without granulation"}, {"measurement": "infection in the postoperative course", "setting": "outer ear canal; 3 ml 1% NCT once daily", "result": "No infection occurred"}, {"measurement": "time needed for complete epithelisation (mean±SD)", "setting": "outer ear canal; 3 ml 1% NCT once daily", "result": "22.6 ± 3.5", "unit": "days"}, {"measurement": "time needed for complete epithelisation (range)", "setting": "outer ear canal; 3 ml 1% NCT once daily", "result": "18 to 31", "unit": "days"}, {"measurement": "tolerability of treatment", "setting": "outer ear canal; 3 ml 1% NCT once daily", "result": "tolerated very well by all patients"}, {"measurement": "average clinical score (0-5) of the outer ear canal", "setting": "outer ear canal; 3 ml 1% NCT once daily, days 2-5 vs. baseline day 1, Wilcoxon test", "result": "decreased daily"}, {"measurement": "necessary time for achieving a score of zero (mean±SD)", "setting": "outer ear canal; [6]", "result": "2.75 ± 0.87", "unit": "days"}, {"measurement": "necessary time for achieving a score of zero (range)", "setting": "outer ear canal; [6]", "result": "2 to 5", "unit": "days"}, {"measurement": "subjective pain", "setting": "outer ear canal; 3 ml 1% NCT once daily, visual analogue scale", "result": "without occurrence of any pain"}, {"measurement": "damage to the inner ear", "setting": "outer ear canal; audiogram before and after treatment", "result": "no signs of damage to the inner ear"}, {"measurement": "allergic reactions", "setting": "outer ear canal; whole period of treatment", "result": "no signs of allergic reactions"}]}
